Our source for the Kd values is publication PMC10814857, “Functional Classification and Interaction Selectivity Landscape of the Human SH3 Domain Superfamily” (Cells, 2024).

SMILES strings stand for the structures. Peptide text beside a SMILES is read from it. Some results are limits rather than exact numbers.

Holding throughout (assay): Fluorescence polarization SH3 domain-PRP binding
A general note: In fluorescence polarisation assays a small probe gives low polarisation when free and higher when bound to something large.

Assay [1] addresses T1, SNX9 SH3 domain (aa 1-62) (Homo sapiens, UniProt Q9Y5X1).
T1 construct: 1-62; GST (N); made in house; host or cells: Escherichia coli CodonPlus, Rosetta, BL21(DE3)
The settings on record: FP, 0.2 µM fluorescein-labeled peptide, SH3 domain 0-200 µM, Tris/HCl pH 7.5, 25 °C, quadratic fit. As to the method:
(§1) The interaction between fluorescein-labeled proline-rich peptides (0.2 µM) and increasing concentrations of SH3 domains (ranging from 0 to 200 µM) was measured in a buffer (containing 30 mM Tris/HCl (pH 7.5), 5 mM MgCl2, and 3 mM DTT at 25 °C) in a total volume of 200 µL using a Fluoromax 4 fluorimeter in polarization mode and a quartz glass fluorescence cuvette (Hellma Ultra-Micro Cuvette 105.250-QS, Thermo Fisher Scientific, Waltham, MA USA). Excitation was performed at 470 nm and emission was measured at 560 nm. Dissociation constants (Kd) were determined by fitting the concentration-dependent binding curve to a quadratic ligand binding equation.
(§2) Fluorescence polarization measurements were performed to determine the binding affinities of SH3 domain–PRP interaction pairs from the dot blot analysis. SH3 proteins were titrated at increasing concentrations against fluorescent PRPs, which were kept at a constant concentration of 0.2 µM. GRB2-2^W193K, which is defective in the binding of PRPs such as RP1, was used as a negative control as previously described. […] The resulting data (Figure S6) allowed the evaluation of equilibrium dissociation constants (Kd) for 45 interactions between the SH3 domains and the PRPs (Figure 2B; Table S6).
(§3) Figure S6. Interactions of the SH3 domains with fluorescent PRPs measured by fluorescence polarization.
(§4) Fluorescent peptides (0.2 µM) were titrated with increasing concentrations of the corresponding SH3 domains.
(§5) GRB2-2W193K, defective in the binding of PRPs such as RP1, was used as a negative control as previously described. The x-axis represents SH3 domain concentrations as GST fusion proteins in µM, while the y-axis represents fluorescence polarization. The equilibrium dissociation constants (Kd) for the respective measurements were determined by fitting the titration curves to a quadratic ligand-binding equation (solid lines). All Kd values are […]
(§6) Error bars are derived from the fitting errors.

Assay [2] has as its target T2, RASA1 SH3 domain (aa 279–341) (Homo sapiens, UniProt P20936).
T2 construct: 279–341; GST (N); made in house; host or cells: Escherichia coli CodonPlus, Rosetta, BL21(DE3)
T2 sequence (P20936 279-341): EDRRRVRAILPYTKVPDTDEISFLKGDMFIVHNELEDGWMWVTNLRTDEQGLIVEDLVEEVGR
The settings on record: FP, 0.2 µM fluorescein-labeled peptide, SH3 domain 0-200 µM, Tris/HCl pH 7.5, 25 °C, quadratic fit. As to the method:
as §1, §2, §3, §4, §5, §6

Assay [3] addresses T3, ITSN1-5 SH3 domain (aa 1155-1214) (Homo sapiens, UniProt Q15811).
T3 construct: 1155-1214; GST (N); made in house; host or cells: Escherichia coli CodonPlus, Rosetta, BL21(DE3)
T3 sequence (Q15811 1155-1214): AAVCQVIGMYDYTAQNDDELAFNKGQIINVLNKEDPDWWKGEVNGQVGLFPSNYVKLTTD
The settings on record: FP, 0.2 µM fluorescein-labeled peptide, SH3 domain 0-200 µM, Tris/HCl pH 7.5, 25 °C, quadratic fit. On the procedure:
as §1, §2, §3, §4, §5, §6

The target of assay [4] is T4, SORBS1-1 SH3 domain (aa 793-852) (Homo sapiens, UniProt Q9BX66).
T4 construct: 793-852; GST (N); made in house; host or cells: Escherichia coli CodonPlus, Rosetta, BL21(DE3)
T4 sequence (Q9BX66 793-852): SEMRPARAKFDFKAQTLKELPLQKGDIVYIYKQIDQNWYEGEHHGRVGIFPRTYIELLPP
The settings on record: FP, 0.2 µM fluorescein-labeled peptide, SH3 domain 0-200 µM, Tris/HCl pH 7.5, 25 °C, quadratic fit. On the procedure: as §1, §2, §3, §4, §5, §6

In assay [5] the target is T5, SRC SH3 domain (aa 77-140) (Homo sapiens, UniProt P12931).
T5 construct: 77-140; GST (N); made in house; host or cells: Escherichia coli CodonPlus, Rosetta, BL21(DE3)
T5 sequence (P12931 77-140 limits assumed): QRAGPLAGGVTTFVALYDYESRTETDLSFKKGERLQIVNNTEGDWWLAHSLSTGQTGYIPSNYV
The settings on record: FP, 0.2 µM fluorescein-labeled peptide, SH3 domain 0-200 µM, Tris/HCl pH 7.5, 25 °C, quadratic fit. As to the method:
as §1, §2, §3, §4, §5, §6

Assay [6] addresses T6, NCK1-3 SH3 domain (aa 190–252) (Homo sapiens, UniProt P16333).
T6 construct: 190–252; GST (N); made in house; host or cells: Escherichia coli CodonPlus, Rosetta, BL21(DE3)
The settings on record: NCK1-3 (wt); FP, 0.2 µM fluorescein-labeled peptide, SH3 domain 0-200 µM, Tris/HCl pH 7.5, 25 °C, quadratic fit; read-out: Kd. On the procedure:
as §1, §2, §3, §4, §5, §6

The target in assay [7] is T7, RIMBP3B-1 SH3 domain (aa 832-899) (Homo sapiens, UniProt A6NNM3).
T7 construct: 832-899; GST (N); made in house; host or cells: Escherichia coli CodonPlus, Rosetta, BL21(DE3)
T7 sequence (A6NNM3 832-899): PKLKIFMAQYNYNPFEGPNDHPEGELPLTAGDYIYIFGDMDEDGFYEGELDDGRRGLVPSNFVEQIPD
The settings on record: FP, 0.2 µM fluorescein-labeled peptide, SH3 domain 0-200 µM, Tris/HCl pH 7.5, 25 °C, quadratic fit. As to the method:
as §1, §2, §3, §4, §5, §6

Another assay deals with T8, NPHP1 SH3 domain (Homo sapiens, UniProt O15259).
T8 construct: GST (N); made in house; host or cells: Escherichia coli CodonPlus, Rosetta, BL21(DE3)
T8 sequence (O15259 152-212 limits assumed): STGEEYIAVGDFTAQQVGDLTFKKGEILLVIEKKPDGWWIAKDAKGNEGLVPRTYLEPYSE
The settings on record: FP, 0.2 µM fluorescein-labeled peptide, SH3 domain 0-200 µM, Tris/HCl pH 7.5, 25 °C, quadratic fit. On the procedure:
as §1, §2, §3, §4, §5, §6

In assay [8] the target is T9, NCK1-2 SH3 domain (aa 106-165) (Homo sapiens, UniProt P16333).
T9 construct: 106-165; GST (N); made in house; host or cells: Escherichia coli CodonPlus, Rosetta, BL21(DE3)
The settings on record: FP, 0.2 µM fluorescein-labeled peptide, SH3 domain 0-200 µM, Tris/HCl pH 7.5, 25 °C, quadratic fit, read-out: Kd. As to the method: as §1, §2, §3, §4, §5, §6

Assay [9] has as its target T10, NCK1-1 SH3 domain (aa 2-61) (Homo sapiens, UniProt P16333).
T10 construct: 2-61; GST (N); made in house; host or cells: Escherichia coli CodonPlus, Rosetta, BL21(DE3)
The settings on record: FP, 0.2 µM fluorescein-labeled peptide, SH3 domain 0-200 µM, Tris/HCl pH 7.5, 25 °C, quadratic fit, read-out: Kd. On the procedure: as §1, §2, §3, §4, §5, §6

The target of assay [10] is T11, SH3GLB1 SH3 domain (aa 305-365) (Homo sapiens, UniProt Q9Y371).
T11 construct: 305-365; GST (N); made in house; host or cells: Escherichia coli CodonPlus, Rosetta, BL21(DE3)
T11 sequence (Q9Y371 305-365): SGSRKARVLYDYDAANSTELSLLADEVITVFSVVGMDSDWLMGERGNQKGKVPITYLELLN
The settings on record: FP, 0.2 µM fluorescein-labeled peptide, SH3 domain 0-200 µM, Tris/HCl pH 7.5, 25 °C, quadratic fit. As to the method: as §1, §2, §3, §4, §5, §6

Assay [11] has as its target T12, SH3PXD2A-1 SH3 domain (aa 166-225) (Homo sapiens, UniProt Q5TCZ1).
T12 construct: 166-225; GST (N); made in house; host or cells: Escherichia coli CodonPlus, Rosetta, BL21(DE3)
T12 sequence (Q5TCZ1 166-225): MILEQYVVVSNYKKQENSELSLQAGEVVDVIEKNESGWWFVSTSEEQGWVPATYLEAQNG
The settings on record: FP, 0.2 µM fluorescein-labeled peptide, SH3 domain 0-200 µM, Tris/HCl pH 7.5, 25 °C, quadratic fit. On the procedure:
as §1, §2, §3, §4, §5, §6

T1 sequence (Q9Y5X1 1-62): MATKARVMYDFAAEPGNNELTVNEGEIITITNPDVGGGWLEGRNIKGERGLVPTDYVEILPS

A word on the Kd: it is the constant that tells how readily two partners part at equilibrium. As for `CC[C@H](C)[C@H](NC(=O)[C@H](C)NC(=O)[C@@H]1CCCN1C(=O)[C@@H]1CCCN1C(=O)[C@H](CO)NC(=O)[C@H](CC(=O)O)NC(=O)[C@@H](N)CC(C)C)C(=O)N1CCC[C@H]1C(=O)N1CCC[C@H]1C(=O)N[C@@H](CCCNC(=N)N)C(=O)N[C@@H](CCC(N)=O)C(=O)N1CCC[C@H]1C(=O)N[C@H](C(=O)N[C@@H](CO)C(=O)N[C@@H](CCCCN)C(=O)O)[C@@H](C)O` [Peptide P4] (H-LDSPPAIPPRQPTSK-OH), the Kd is more than 200 µM in assay [1]; more than 200 µM in assay [2]; 12 µM in assay [3]; more than 200 µM in assay [4]; more than 200 µM in assay [5]; more than 200 µM in assay [6]. Also, the Kd (in [7]; at NPHP1 SH3 domain; in assay [8]; in [9]; in [10]; in assay [11]) was more than 200 µM each time.
